Test results: publication PMC12645191, “Dicarboxylate and dicarboxylic acid appended supramolecular self-associating amphiphiles as antimicrobial agents against high priority bacterial pathogens” (Organic & Biomolecular Chemistry, 2025)
In brackets after ≈: the same amount, converted by molar mass. Several values for one entry are separate records, joined by “and”; a condition that tells them apart may be missing. Equal values may be shown once. Marks after values point to notes of the source that are not given here.

Tests used:
A. baumannii ATCC 17978 = test: inhibition of bacterial growth, OD600 after 20 h; format: cell-based, Acinetobacter baumannii; conditions: SSA 5.0 mM, 2.5% ethanol, negative = enhanced growth
Description: (§1) With the self-associative properties of 1–10 established, the antimicrobial activity of these SSAs were determined against a panel of clinically relevant, high-priority pathogens including: P. aeruginosa PAO1; Klebsiella pneumonia (K. pneumoniae) M6; E. coli NCTC 12923; Acinetobacter baumannii (A. baumannii) ATCC 17978; S. aureus ATCC 9144; Enterococcus faecalis (E. faecalis) NCTC 775; and Enterococcus faecium (E. faecium) NCTC 12204. […] However, it should be noted that the SSA stock solution was prepared in a H2O 5% EtOH solution, to ensure that the SSA aggregates formed were in line with those characterised within the scope of the SSA self-association studies.
(§2) Section 3: Biological methods
(§3) These methods were taken directly from UK Health and Security Office (UKHSA) standard […]
(§4) Preparation of Luria Broth media (LB): Yeast extract (5.0 g), tryptone (10.0 g) and sodium chloride (10.0 g) were dissolved in dH₂O (1.0 L) then divided into bottles and autoclaved.
(§5) Preparation of Luria Broth (LB) agar plates: Agar (6.0 g) was added to LB (400 mL) and autoclaved. Once cool, the LB agar was poured into sterile petri dishes under sterile conditions and allowed to set. LB plates were stored at 4 °C until use.
(§6) Preparation of bacterial plates: Sterile LB agar plates were streaked using streaked using the desired bacteria i) Pseudomonas aeruginosa (P.aeruginosa) PAO1, ii) Klebsiella pneumoniae (K. pneumoniae) M6 iii) E. coli NCTC 12923 and iv) Acinetobacter baumannii (A. baumannii) ATCC 17978 and Gram-positive i) Staphylococcus aureus (S. aureus) ATCC 9144 ii) Enterococcus faecalis (E. faecalis) NCTC 775 and iii) Enterococcus faecium (E. faecium ) NCTC 12204, then incubated at 37 °C overnight.
(§7) Preparation of Inoculum: An initial culture was made up by inoculating LB media (5 mL) with a single colony of bacteria under sterile conditions and incubated at 37 °C with shaking overnight. The following day, overnight bacterial cultures were subcultured into fresh LB medium to a starting OD600 of 0.01.
(§8) Preparation of 96 well microplate for MIC50: The 1:100 cell suspension (150 µL) was dispensed into individual wells under sterile conditions. SSAs (30 µL) were added to the wells to equal a total volume of 180 µL in the wells. Six repeats of each concentration for each SSA were created each plate. The plates were sealed using parafilm, then incubated at 37 °C in a microplate reader for 20 hours. OD600 endpoint data was used to generate growth curves. […]

[1] = metabolic stability in liver microsomes; format: in vitro ADME, mouse; conditions: for microsomal CLint at 1 µM: read-out: in vitro CLint; for half-life at 1 µM: read-out: in vitro t1/2; for CLint scaled at 1 µM: liver microsomes, read-out: Scale-up CLint
Description: Metabolic stability was assessed in mouse and rat liver microsomes. Microsomes are subcellular fractions of hepatocytes and contain CYP450s, the predominant enzymes involved in first-pass metabolism.[66] […] A plasma protein binding assay was performed to assess the extent of compound binding to plasma proteins. This is key as only unbound compound is free to distribute and exert a pharmacological effect. […] To assess the potential for this sub-class of SSAs to be developed as drugs for oral administration, Caco-2 permeability assays were also performed, as a cellular model indicative of human intestinal permeability.
Section 3: Biological methods […]
In vitro Absorption, Distribution and Metabolism
These studies were performed by Contract Research Organisation (CRO) Pharmaron. The methodology provided within the ESI is published within the express permission of this organisation. The percentage of a compound recovered during the analysis process should be 100 %; any deviation from this value indicates experimental limitations such as unintended potential non-specific binding events to experimental equipment, solubility issues, etc.
Metabolic Stability in Rat and Mouse Liver Microsomes:
The metabolic stability of compounds at a concentration of 1 µM, in rat and mouse liver […]
/ mL) in the presence and absence of cofactor (NADPH) at 37 °C. Aliquots of each incubation were removed at 0.5, 5, 15, 30 and 60 minutes. The reaction was stopped by the addition of 5 volumes of cold acetonitrile containing analytical internal standard (IS).
Samples were then centrifuged at 3 °C, 220 g for 40 minutes to remove cell debris. The supernatant was aliquoted and added to ultra-pure H2O in a 1:1 ratio in preparation for LC- […]
Samples were analysed using a Shimadzu liquid chromatography system coupled to a Triple Quad 6500+ mass spectrometry (AB Inc.) Separation of compounds was achieved using an HSS T3 column (50 x 2.1 mm) at a temperature of 40 °C and a binary mobile phase gradient […]
at a flow rate of 0.7 mL/min. […]
acid in water) and 5 % solvent B (0.1 % formic acid in acetonitrile). […]
solvent B at 0.7 minutes, held for 0.5 minutes and then immedi ately returned to initial conditions. Sample analysis was by electrospray ionisation. […]

[2] = kinetic solubility determination in PBS pH 7.4; conditions: upper limit set at 300 µM; for solubility: PBS, pH 7.4, aqueous buffer, kinetic from dmso stock, Solubility in PBS pH 7.4, kinetic
[3] = tensiometry: critical aggregate concentration (CAC) and surface tension; format: physicochemical; conditions: for Surface tension at CAC: H2O/5.0 % EtOH
Description: As the (Q) ^1H NMR spectroscopy experiments conducted at 5.6 mM in a D2O 5.0% EtOH solution confirmed the presence of higher-order self-associated structures with solid-like properties, concentration dependent surface tension measurements, obtained through tensiometry, were used to calculate critical aggregate concentration (CAC). Here the CAC is defined as the point at which an increase in SSA concentration no longer decreases surface tension but instead results in the formation of higher-order self-associated structures.

K. pneumoniae M6 = test: inhibition of bacterial growth, OD600 after 20 h; format: cell-based, Klebsiella pneumoniae; conditions: SSA 5.0 mM, 2.5% ethanol, negative = enhanced growth; for inhibition at 5000 µM: Klebsiella pneumoniae, M6, 20 h, read-out: Percentage inhibition of bacterial growth, M6 (K. pneumoniae)
Description: as §1, §2, §3, §4, §5, §6, §7, §8

P. aeruginosa PAO1 = test: inhibition of bacterial growth, OD600 after 20 h; format: cell-based, Pseudomonas aeruginosa; conditions: SSA 5.0 mM, 2.5% ethanol, negative = enhanced growth
Description: as §1, §2, §3, §4, §5, §6, §7, §8

[4] = mouse liver microsomes, 1 µM, 0.5 mg protein/mL

Row | SMILES | Hepatic Extraction Ratio (ER) ([1]; mouse) | Predicted Hepatic CLH ([1]; mouse) [mL/min/kg] | microsomal CLint at 1 µM [1, 4] [µL/min/mg] | half-life at 1 µM [1, 4] [h] | Remaining percentage ([1]; mouse, +Cofactors, 0.5 min) [%] | Remaining percentage ([1]; mouse, +Cofactors, 5 min) [%] | Remaining percentage ([1]; mouse, +Cofactors, 15 min) [%] | Remaining percentage ([1]; mouse, +Cofactors, 30 min) [%] | Remaining percentage ([1]; mouse, +Cofactors, 60 min) [%] | Remaining percentage ([1]; mouse, -Cofactors, 0.5 min) [%] | Remaining percentage ([1]; mouse, -Cofactors, 60 min) [%] | CLint scaled at 1 µM ([1]; mouse) [mL/min/kg] | solubility [2] [µM] | inhibition at 5000 µM (K. pneumoniae M6) [%] | Percentage inhibition of bacterial growth, ATCC 17978 (A. baumannii) (A. baumannii ATCC 17978) | CAC ([3]; H2O 5.0% EtOH, 298 K) | ST at CAC ([3]; H2O 5.0% EtOH, 298 K) [mN m^−1] | Surface tension at CAC [3] [mN/m] | Percentage inhibition of bacterial growth, M6 (K. pneumoniae) (K. pneumoniae M6) | Percentage inhibition of bacterial growth, PAO1 (P. aeruginosa) (P. aeruginosa PAO1) | also measured
1 | O=C(O)CC[C@@H](NC(=O)Nc1ccc(C(F)(F)F)cc1)C(=O)O [SSA 3] | < 0.26 | < 23.07 | < 7.5 | > 3.08 | 100.00 | 99.16 | 100.05 | 98.24 | 98.27 | 100.00 | 93.98 | < 31 | 310 (≈ 104 µg/mL) | 15.4 | – | – | – | – | – | – | Percentage inhibition of bacterial growth, ATCC 17978 (A. baumannii) (A. baumannii ATCC 17978; listed as 3): 94.45% and 94%; CAC ([3]; H2O 5.0% EtOH, 298 K, listed as 3): 17.46 mM and 20 mM; Surface tension at CAC ([3]; listed as 3): 38.73 mN/m; Percentage inhibition of bacterial growth, M6 (K. pneumoniae) (K. pneumoniae M6; listed as 3): 15%; Percentage inhibition of bacterial growth, PAO1 (P. aeruginosa) (P. aeruginosa PAO1; listed as 3): -35.71% and −36%
2 | O=C(O)CC[C@H](NC(=O)Nc1ccc(C(F)(F)F)cc1)C(=O)O [SSA 2] | < 0.26 | < 23.07 | – | – | 100.00 | 101.97 | 102.46 | 101.55 | 102.31 | 100.00 | 102.89 | – | – | – | -23.34% and −23% | 19.84 mM and 20 mM | 37 | 37.13 | 17.56% and 18% | -11.25% and −11% | Scale-up CLint ([1]; mouse): < 31.02 mL/min/kg; in vitro CLint [1, 4]: < 7.50 µL/min/mg; in vitro t1/2 [1, 4]: > 3.0797 h; Solubility in PBS pH 7.4 ([2]; kinetic): 297.29 μM
3 | O=C(O)CC[C@H](NC(=O)Nc1ccc(C(F)(F)F)cc1)C(=O)O [SSA 1] | < 0.26 | < 23.07 | < 7.5 | > 3.08 | 100.00 | 100.09 | 98.69 | 98.11 | 105.07 | 100.00 | 103.10 | < 31 | 303 (≈ 101 µg/mL) | 26.2 | 90.67% and 91% | 19.23 mM and 19 mM | 39 | 38.90 | 26% | -28.56% and −29% | –
4 | O=C(O)CC[C@H](NC(=O)Nc1ccc(Br)cc1)C(=O)O [SSA 9] | < 0.26 | < 23.07 | < 7.5 | > 3.08 | 100.00 | 101.88 | 100.09 | 97.61 | 103.16 | 100.00 | 103.83 | < 31 | 305 (≈ 105 µg/mL) | – | – | – | – | – | – | – | Percentage inhibition of bacterial growth, ATCC 17978 (A. baumannii) (A. baumannii ATCC 17978; listed as 9): -8.08% and −8%; CAC (footnote in place of a value) ([3]; H2O 5.0% EtOH, 298 K): ^c (CAC is >100 mM); ST at the limit of solubility or 100 mM, whichever concentration is lower ([3]; H2O 5.0% EtOH, 298 K): 54 ^d mN m^−1; Surface tension at CAC ([3]; listed as 9): 54.44 mN/m; Percentage inhibition of bacterial growth, M6 (K. pneumoniae) (K. pneumoniae M6; listed as 9): 21.69% and 22%
